US8580773B2, “Small-molecule inhibitors of the androgen receptor” (The Regents of the University of California, priority 2008, dated 2013)
Where a name gives a salt, the structure may show the parent alone.

Legend:
[1] = biological target: T1, endogenous AR (Homo sapiens, UniProt P10275); type: cell-based; conditions: LAPC4, 3 nM DHT plus 1 μM BIC, 100 nM PP or 100 nM HH
T1 construct: that each express endogenous AR; endogenous in cells; host or cells: LAPC4
T1 sequence (P10275 1-920): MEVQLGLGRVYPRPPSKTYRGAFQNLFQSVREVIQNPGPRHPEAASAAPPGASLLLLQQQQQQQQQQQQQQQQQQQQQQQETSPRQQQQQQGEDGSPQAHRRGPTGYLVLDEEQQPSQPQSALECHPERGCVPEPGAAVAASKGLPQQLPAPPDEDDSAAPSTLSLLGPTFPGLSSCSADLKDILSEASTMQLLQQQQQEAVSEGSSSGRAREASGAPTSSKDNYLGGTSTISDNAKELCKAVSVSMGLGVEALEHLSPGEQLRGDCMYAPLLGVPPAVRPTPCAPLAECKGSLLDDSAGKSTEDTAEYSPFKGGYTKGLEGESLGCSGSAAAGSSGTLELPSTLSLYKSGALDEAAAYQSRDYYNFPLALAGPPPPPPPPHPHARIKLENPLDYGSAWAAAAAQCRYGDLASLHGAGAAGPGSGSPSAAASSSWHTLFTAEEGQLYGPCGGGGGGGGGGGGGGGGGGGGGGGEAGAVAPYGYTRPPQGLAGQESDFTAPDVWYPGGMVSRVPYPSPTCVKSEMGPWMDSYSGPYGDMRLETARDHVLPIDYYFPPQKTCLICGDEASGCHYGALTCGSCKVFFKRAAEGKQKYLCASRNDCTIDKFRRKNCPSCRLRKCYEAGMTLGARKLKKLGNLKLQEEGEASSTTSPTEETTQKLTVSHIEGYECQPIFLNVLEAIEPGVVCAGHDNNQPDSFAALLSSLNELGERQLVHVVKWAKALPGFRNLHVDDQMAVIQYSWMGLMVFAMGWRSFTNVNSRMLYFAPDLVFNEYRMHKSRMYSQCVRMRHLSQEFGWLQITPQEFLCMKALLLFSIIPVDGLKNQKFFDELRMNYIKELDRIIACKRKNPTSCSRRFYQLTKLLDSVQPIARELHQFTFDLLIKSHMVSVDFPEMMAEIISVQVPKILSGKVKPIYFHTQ
Description: (§1) LAPC4 and LNCaP cells were grown in the presence or absence of 3 nM DHT in charcoal-stripped media, with or without the inhibitors. RNA was harvested using an RNAeasy kit (Qiagen) and reverse transcribed (MMLV-RT, Invitrogen). Real-time PCR was carried out on a 7300 Real Time PCR System (Applied Biosystems) using SYBR green as the detecting dye and Rox as the reference dye. The androgen responsive genes kalikrein 3, or PSA (KLK3) [Cleutjens, K. B., et al., Two androgen response regions cooperate in steroid hormone regulated activity of the prostate-specific antigen promoter. J Biol Chem, 1996. 271(11): p. 6379-88; Nelson, P. S., et al., The program of androgen-responsive genes in neoplastic prostate epithelium. Proc Natl Acad Sci USA, 2002. 99(18): p. 11890-5), metalloproteinase 16 (MMP16) (Nelson, P. S., et al., The program of androgen-responsive genes in neoplastic prostate epithelium. Proc Natl Acad Sci USA, 2002. 99(18): p. 11890-5), transmembrane protease serine 2 (TMPRSS2) (Nelson, P. S., et al., The program of androgen-responsive genes in neoplastic prostate epithelium. Proc Natl Acad Sci USA, 2002. 99(18): p. 11890-5; […] Vaarala, M. H., et al., Expression of transmembrane serine protease TMPRSS2 in mouse and human tissues. J Pathol, 2001. 193(1): p. 134-40), FK506-binding immunophilin 51 (FKBP51) (Nelson, P. S., et al., The program of androgen-responsive genes in neoplastic prostate epithelium. Proc Natl Acad Sci USA, 2002. 99(18): p. 11890-5; Amler, L. C., et al., Dysregulated expression of androgen-responsive and nonresponsive genes in the androgen-independent prostate cancer xenograft model CWR22-R1. Cancer Res, 2000. 60(21): p. 6134-41; Velasco, A. M., et al., Identification and validation of novel androgen-regulated genes in prostate cancer. Endocrinology, 2004. 145(8): p. 3913-24; Magee, J. A., et al., Direct, androgen receptor-mediated regulation of the FKBP5 gene via a distal enhancer element. Endocrinology, 2006. 147(1): p. 590-8), G-protein coupled receptor RDC1 homolog, or chemokine orphan receptor 1 (RDC-1) (Nelson, P. S., et al., The program of androgen-responsive genes in neoplastic prostate epithelium. Proc Natl Acad Sci USA, 2002. 99(18): p. 11890-5), NK homeobox family member 3 (NRx3.1) (Nelson, P. S., et al., The program of androgen-responsive genes in neoplastic prostate epithelium. Proc Natl Acad Sci USA, 2002. 99(18): p. 11890-5; Bieberich, C. J., et al., Prostate-specific and androgen-dependent expression of a novel homeobox gene. J Biol Chem, 1996. 271(50): p. 31779-82; […]) were all normalized to the transcription of the housekeeping ribosomal gene (RPL19). All samples were done in triplicate and separately normalized.

[2] = biological target: T2, endogenous AR (Homo sapiens, UniProt P10275, T878A); type: cell-based; conditions: LNCaP, 3 nM DHT plus 1 μM BIC, 100 nM PP or 100 nM HH
T2 construct: that each express endogenous AR; endogenous in cells; host or cells: LNCaP
Description: as §1

T2 sequence (P10275 whole entry T878A): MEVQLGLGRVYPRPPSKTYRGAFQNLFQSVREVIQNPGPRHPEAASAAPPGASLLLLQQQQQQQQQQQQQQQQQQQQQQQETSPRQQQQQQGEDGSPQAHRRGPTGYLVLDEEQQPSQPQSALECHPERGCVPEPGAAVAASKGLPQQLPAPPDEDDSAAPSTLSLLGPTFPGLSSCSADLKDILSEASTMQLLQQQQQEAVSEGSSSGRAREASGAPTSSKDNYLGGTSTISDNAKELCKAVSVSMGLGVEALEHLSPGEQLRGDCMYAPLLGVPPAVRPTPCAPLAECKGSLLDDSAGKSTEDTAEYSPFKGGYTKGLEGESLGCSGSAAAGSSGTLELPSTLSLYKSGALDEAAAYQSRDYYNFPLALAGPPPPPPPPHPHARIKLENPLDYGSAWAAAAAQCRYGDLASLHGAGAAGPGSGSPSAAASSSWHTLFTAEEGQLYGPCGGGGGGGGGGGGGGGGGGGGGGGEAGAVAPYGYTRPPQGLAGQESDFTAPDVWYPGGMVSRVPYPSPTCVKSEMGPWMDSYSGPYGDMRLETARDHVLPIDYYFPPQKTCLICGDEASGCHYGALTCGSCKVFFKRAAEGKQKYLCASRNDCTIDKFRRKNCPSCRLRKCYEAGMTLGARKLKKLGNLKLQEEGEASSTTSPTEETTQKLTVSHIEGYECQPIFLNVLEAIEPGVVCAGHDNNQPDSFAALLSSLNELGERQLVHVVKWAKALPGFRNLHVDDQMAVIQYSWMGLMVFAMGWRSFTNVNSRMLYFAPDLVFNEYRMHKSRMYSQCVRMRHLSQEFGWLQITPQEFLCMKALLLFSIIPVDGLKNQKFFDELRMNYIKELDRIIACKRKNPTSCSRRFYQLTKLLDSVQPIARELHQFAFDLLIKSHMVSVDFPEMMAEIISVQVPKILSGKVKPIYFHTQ

Cc1nccc2c1[nH]c1cc(O)ccc12 [HH, harmol hydrochloride]
Nkx3.1 transcription (normalized to RPL19) ([1]; No DHT = 1, 3 nM DHT = 1.08): 1.55 | TMPRSS2 transcription (normalized to RPL19) ([1]; No DHT = 1, 3 nM DHT = 1.13): 1.86 | KLK3 transcription (normalized to RPL19) ([1]; No DHT = 1, 3 nM DHT = 1.97): 1.64 | FKBP51 transcription (normalized to RPL19) ([1]; No DHT = 1, 3 nM DHT = 21.4): 11.96 | RDC1 transcription (normalized to RPL19) ([1]; androgen-repressed gene, No DHT = 1, 3 nM DHT = 0.63): 2.88 | MMP16 transcription (normalized to RPL19) ([1]; androgen-repressed gene, No DHT = 1, 3 nM DHT = 0.71): 4.74 | KLK3 transcription (normalized to RPL19) ([2]; No DHT = 1, 3 nM DHT = 1.89): 1.46 | Nkx3.1 transcription (normalized to RPL19) ([2]; No DHT = 1, 3 nM DHT = 2.00): 1.28 | FKBP51 transcription (normalized to RPL19) ([2]; No DHT = 1, 3 nM DHT = 2.15): 1.90 | TMPRSS2 transcription (normalized to RPL19) ([2]; No DHT = 1, 3 nM DHT = 3.70): 1.22 | MMP16 transcription (normalized to RPL19) ([2]; androgen-repressed gene, No DHT = 1, 3 nM DHT = 0.61): 1.02 | RDC1 transcription (normalized to RPL19) ([2]; androgen-repressed gene, No DHT = 1, 3 nM DHT = 0.66): 1.22
